From US4496546A, “Erythromycin D and esters thereof” (Pfizer Inc., priority 1982, dated 1985)
≈ marks a conversion by molar mass, not a printed value. Where two headings read alike, the source gives them in different places.

Assays:
Strep. pyog. 203 = experiment: in vitro MIC, tube serial dilution, 24 hour incubation; assay type: cell-based
Method: (§1) Table I summarizes the results of in vitro MIC (minimum inhibitory concentration) tests. For this standard test, each organism is inoculated into a series of tubes containing nutrient medium and serially diluted concentrations of the antibiotic. The MIC is the lowest concentration of antibiotic which prevents growth of the microorganism over the 24 hour incubation test period.

Staph. aureus 005 = experiment: as above; assay type: cell-based
Method: as §1

Neiss. Sicca 000 = experiment: as above; assay type: cell-based
Method: as §1

Staph. aureus 052 = experiment: as above; assay type: cell-based
Method: as §1

Staph. aureus 400 = experiment: as above; assay type: cell-based
Method: as §1

E. Coli 470 = experiment: as above; assay type: cell-based; settings: Escherichia coli
Method: as §1

Strep. pneum. 012 = experiment: as above; assay type: cell-based
Method: as §1

Strep. faec. 006 = experiment: as above; assay type: cell-based
Method: as §1

Hem. influ. 012 = experiment: as above; assay type: cell-based
Method: as §1

Hem. influ. 036 = experiment: as above; assay type: cell-based
Method: as §1

Past. mult. 001 = experiment: as above; assay type: cell-based
Method: as §1

Staph. epid. 111 = experiment: as above; assay type: cell-based
Method: as §1

[1] = test system: Gram-positive and Gram-negative bacteria; experiment: in vitro antibacterial activity (summary statement); assay type: cell-based; settings: medium spectrum of Gram-positive and Gram-negative bacteria
Method: as §1

sensitive bacteria = experiment: in vivo activity against infections by sensitive bacteria (summary statement); settings: mice, oral
Description: (§2) In determining such activity, acute experimental infections are produced in mice by the intraperitoneal inoculation of the mice with a standardized culture of the test organism suspended in 5 percent hog gastric mucin. Infection severity is standardized so that the mice receive at least one LD100 dose of the organism (LD100 : the minimum inoculum of organism required to consistently kill 100 percent of the infected, nontreated control mice). The test compound is orally administered at various dosage levels to groups of infected mice at 1/2, 4 and 24 hours post infection. At the end of the test, the activity of the mixture is assessed by counting the number of survivors among treated animals at a given dose. Activity is expressed as the percentage of animals which survive at a given dose, or calculated as a PD50 (dose which protects 50% of the animals from infection).

stability at acid pH = assay type: physicochemical; settings: acid pH (2.5 to 5.0); unlike erythromycin A
Staph aureus 005 = experiment: in vivo oral protection against acute experimental infection in mice; settings: read-out: PD50
Description: as §2

Strep pyogenes 203 = experiment: as above; settings: Mus musculus, read-out: PD50
Description: as §2

[2] = absorption via the oral route; assay type: in vivo
[3] = Strep. pyog. 203, read-out: MIC
[4] = Staphylococcus aureus, 24 h, Staph. aureus 005, read-out: MIC
[5] = Neiss. Sicca 000, read-out: MIC
[6] = Staphylococcus aureus, 24 h, Staph. aureus 052, read-out: MIC
[7] = Staphylococcus aureus, 24 h, Staph. aureus 400, read-out: MIC
[8] = Strep. pneum. 012, read-out: MIC
[9] = Strep. faec. 006, read-out: MIC
[10] = Staph. epid. 111, read-out: MIC
[11] = Staphylococcus aureus, 400, 24 h
[12] = Staphylococcus aureus, mice, Staph aureus 005, oral dosage 1/2, 4 and 24 hours post infection
[13] = mice, Strep pyogenes 203, oral dosage 1/2, 4 and 24 hours post infection

Row | Compound | MIC (Strep. pyog. 203; [3]) [µg/mL] | MIC (Staph. aureus 005; [4]) [µg/mL] | MIC (Neiss. Sicca 000; [5]) [µg/mL] | MIC (Staph. aureus 052; [6]) [µg/mL] | MIC (Staph. aureus 400; [7]) [µg/mL] | MIC (E. Coli 470; E. Coli 470, read-out: MIC) [µg/mL] | MIC (Strep. pneum. 012; [8]) [µg/mL] | MIC (Strep. faec. 006; [9]) [µg/mL] | MIC (Hem. influ. 012) [µg/mL] | MIC (Hem. influ. 036; Hem. influ. 036, read-out: MIC) [µg/mL] | MIC (Past. mult. 001; Past. mult. 001, read-out: MIC) [µg/mL] | MIC (Staph. epid. 111; [10]) [µg/mL] | MIC (Staph. aureus 400; [11]) [µg/mL] | MIC (E. Coli 470) [µg/mL] | MIC (Hem. influ. 012; Hem. influ. 012, read-out: MIC) [µg/mL] | ED50 (Staph aureus 005; [12]) [mg/kg] | ED50 (Strep pyogenes 203; [13]) [mg/kg] | other results
1 | CCC(=O)OC1C(C)OC(OC2C(C)C(=O)OC(CC)C(C)C(O)C(C)C(=O)C(C)CC(C)(O)C(OC3OC(C)CC(N(C)C)C3O)C2C)CC1(C)OC(C)=O (centres unmarked) [3"-O-Acetyl-4"-O-propionylerythromycin D] | 0.05 (≈ 0.0623 µM) | 0.39 (≈ 0.486 µM) | 12.5 (≈ 15.6 µM) | 0.78 (≈ 0.973 µM) | 12.5 (≈ 15.6 µM) | 12.5 (≈ 15.6 µM) | 0.05 (≈ 0.0623 µM) | 0.78 (≈ 0.973 µM) | 50 (≈ 62.3 µM) | > 50 | 12.5 (≈ 15.6 µM) | 0.2 (≈ 0.249 µM) | – | – | – | – | – | –
2 | CCC1OC(=O)C(C)C(OC2CC(C)(O)C(O)C(C)O2)C(C)C(OC2OC(C)CC(N(C)C)C2O)C(C)(O)CC(C)C(=O)C(C)C(O)C1C (centres unmarked) [Erythromycin D] | – | – | – | – | – | – | – | – | 25 (≈ 35.5 µM) | – | – | – | 6.25 (≈ 8.88 µM) | 3.12 (≈ 4.43 µM) | – | – | – | in vitro activity [1]: exhibit in vitro activity; MIC (Strep. pyog. 203): 0.025 µg/mL (≈ 0.0355 µM); MIC (Staph. aureus 005; Staphylococcus aureus, 005, 24 h): 0.39 µg/mL (≈ 0.554 µM); MIC (Neiss. Sicca 000): 6.25 µg/mL (≈ 8.88 µM); MIC (Staph. aureus 052; Staphylococcus aureus, 052, 24 h): 0.39 µg/mL (≈ 0.554 µM); MIC (Strep. pneum. 012): 0.025 µg/mL (≈ 0.0355 µM); MIC (Strep. faec. 006): 0.39 µg/mL (≈ 0.554 µM); MIC (Hem. influ. 036): 50 µg/mL (≈ 71 µM); MIC (Past. mult. 001): 6.25 µg/mL (≈ 8.88 µM); MIC (Staph. epid. 111): 0.2 µg/mL (≈ 0.284 µM); in vivo activity (sensitive bacteria): exhibit in vivo activity; stability at acid pH (stability at acid pH): fairly stable; ED50 (Staph aureus 005; Staphylococcus aureus, 005, po): 57 mg/kg; ED50 (Strep pyogenes 203; po): 15 mg/kg
3 | CCC1OC(=O)C(C)C(OC2CC(C)(O)C(OC(C)=O)C(C)O2)C(C)C(OC2OC(C)CC(N(C)C)C2O)C(C)(O)CC(C)C(=O)C(C)C(O)C1C (centres unmarked) [4"-O-Acetylerythromycin D] | 0.2 (≈ 0.268 µM) | 3.12 (≈ 4.18 µM) | 25 (≈ 33.5 µM) | 6.25 (≈ 8.38 µM) | > 50 | – | 0.39 (≈ 0.523 µM) | 3.12 (≈ 4.18 µM) | – | > 50 | 25 (≈ 33.5 µM) | 0.78 (≈ 1.05 µM) | – | 6.25 (≈ 8.38 µM) | 50 (≈ 67 µM) | 139 | 40 | –
4 | CC[C@H]1OC(=O)[C@H](C)[C@@H](O[C@H]2C[C@@](C)(OC)[C@@H](O)[C@H](C)O2)[C@H](C)[C@@H](O[C@@H]2O[C@H](C)C[C@H](N(C)C)[C@H]2O)[C@](C)(O)C[C@@H](C)C(=O)[C@H](C)[C@@H](O)[C@]1(C)O [Erythromycin A, reference compound] | – | – | – | – | – | – | – | – | – | – | – | – | – | – | – | 64 | 25 | –
5 | CCC1OC(=O)C(C)C(OC2CC(C)(OC(C)=O)C(OC(C)=O)C(C)O2)C(C)C(OC2OC(C)CC(N(C)C)C2O)C(C)(O)CC(C)C(=O)C(C)C(O)C1C (centres unmarked) [3",4"-Di-O-acetylerythromycin D] | 0.1 (≈ 0.127 µM) | 1.56 (≈ 1.98 µM) | 25 (≈ 31.7 µM) | 3.12 (≈ 3.96 µM) | – | 12.5 (≈ 15.9 µM) | 0.1 (≈ 0.127 µM) | 1.56 (≈ 1.98 µM) | – | > 50 | – | 0.39 (≈ 0.495 µM) | 50 (≈ 63.5 µM) | – | > 50 | 27 | 15 | absorption via the oral route [2]: high degree of absorption
